Entries after “also recorded” stand apart in the source; their conditions may differ.
Molecular target: T1, Jhdm2a (Homo sapiens, UniProt Q9Y4C1)
T1 construct: expressed in transfected cells; host or cells: 293T cells
T1 sequence (Q9Y4C1 1-1321): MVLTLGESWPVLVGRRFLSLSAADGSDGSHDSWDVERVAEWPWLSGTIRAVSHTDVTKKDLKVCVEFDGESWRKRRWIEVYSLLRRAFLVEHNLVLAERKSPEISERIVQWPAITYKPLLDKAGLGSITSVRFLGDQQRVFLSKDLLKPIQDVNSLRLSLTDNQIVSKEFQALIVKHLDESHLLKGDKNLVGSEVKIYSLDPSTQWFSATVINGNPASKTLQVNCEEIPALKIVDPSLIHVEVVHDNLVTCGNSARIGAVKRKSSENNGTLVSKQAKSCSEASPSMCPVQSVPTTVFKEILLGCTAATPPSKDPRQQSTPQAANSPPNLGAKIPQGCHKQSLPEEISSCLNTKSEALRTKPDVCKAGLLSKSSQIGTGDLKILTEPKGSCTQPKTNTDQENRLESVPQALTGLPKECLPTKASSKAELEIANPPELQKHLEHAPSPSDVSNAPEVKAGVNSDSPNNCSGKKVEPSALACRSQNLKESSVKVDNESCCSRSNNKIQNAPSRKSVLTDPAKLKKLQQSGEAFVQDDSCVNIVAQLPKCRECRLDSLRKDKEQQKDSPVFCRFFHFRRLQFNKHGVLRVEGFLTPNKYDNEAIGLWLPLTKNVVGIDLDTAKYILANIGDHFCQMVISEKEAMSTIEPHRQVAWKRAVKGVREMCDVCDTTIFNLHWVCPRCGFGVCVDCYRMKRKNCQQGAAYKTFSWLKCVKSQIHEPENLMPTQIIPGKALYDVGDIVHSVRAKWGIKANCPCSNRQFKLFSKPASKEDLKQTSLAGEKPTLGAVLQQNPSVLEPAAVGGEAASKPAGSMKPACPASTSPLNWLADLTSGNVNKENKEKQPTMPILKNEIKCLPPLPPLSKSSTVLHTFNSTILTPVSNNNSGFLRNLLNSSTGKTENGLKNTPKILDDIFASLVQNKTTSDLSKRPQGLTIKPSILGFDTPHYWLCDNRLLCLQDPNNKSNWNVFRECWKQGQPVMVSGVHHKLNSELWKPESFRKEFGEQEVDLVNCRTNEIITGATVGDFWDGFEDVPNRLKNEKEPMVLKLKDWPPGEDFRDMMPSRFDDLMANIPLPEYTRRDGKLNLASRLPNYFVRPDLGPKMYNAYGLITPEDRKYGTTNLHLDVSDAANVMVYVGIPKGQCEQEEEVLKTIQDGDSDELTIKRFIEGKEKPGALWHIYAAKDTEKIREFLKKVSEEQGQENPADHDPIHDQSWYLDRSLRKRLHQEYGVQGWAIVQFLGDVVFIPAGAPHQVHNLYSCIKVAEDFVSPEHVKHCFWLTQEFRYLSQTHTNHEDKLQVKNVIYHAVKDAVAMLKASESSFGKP
Assay: Immunolabeling assay of Jhdm2a-induced H3K9 demethylation in 293T cells
Type: cell-based
Settings: 10 μM; 293T cells transfected with Jhdm2a-EGFP; vs DMSO
Excerpt: (A) Inhibition of Jhdm2a induced histone demethylation by DMOG. Blocking effects of DMOG on Jhdm2a were examined in 293T cells transfected with a plasmid expressing Jhdm2a-EGFP fusion protein. In control cells treated with DMSO, histone 3 lysine 9 dimethylation (H3K9diM) immunostaining signal was lost in Jhdm2a-GFP transfected cells (arrows). […] DAPI labels all cell nuclei. Scale bar: 20 μm. (B-D) show DMOG attenuates ESC-induced reactivation of Oct4 expression from adult NSCs. […] Representative plots from multiple experiments are shown (B). Reprogramming frequencies from multiple experiments were quantified (C) for fusion population with the 48-hour treatment of DMSO or DMOG. Data represent mean±SEM. (n=3; ** P<0.01, Student's t-test). Shown in (D) is the cumulative distribution plot of DsRed+ population with graded GFP fluorescence intensities for comparison of the reprogramming efficacy in the presence of DMSO or DMOG (n=3 experiments; * P<0.01, Kolmogorov-Smirnov test).
To confirm the blocking effects of DMOG on histone demethylases, an immuno labeling assay previously developed for JHDM2A was used. Overexpression of Jhdm2a in heterologous cell lines led to dramatic loss of H3K9 dimethylation, which was blocked by the DMOG treatment (10 μM FIG. 6A). […]

Compound: COC(=O)CNC(=O)C(=O)OC [DMOG, dimethyloxalylglycine]
- Jhdm2a-induced loss of H3K9 dimethylation: blocked; also recorded: H3K9 dimethylation signals are present in all cells
